Assay results: PubChem BioAssay AID256 (DTP/NCI, 2004)
“And” between values parts separate entries of the source, which are not always exact repeats. Identical values can stand only once. Inconclusive results and toxic doses are left out. Rule for the calls: active = survival T/C of 150% or more; inactive = T/C below 125% in these data.

Test system: CD2F1 mice, L1210 leukemia ip, survival T/C
Assay: NCI In Vivo Anticancer Drug Screen. Data for tumor model L1210 Leukemia (intraperitoneal) in CD2F1 (CDF1) mice
Conditions: higher = longer survival
Outline: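 Tumor-bearing mice (transplanted tumor) were split into treated and vehicle control groups, and the measured endpoint of each treated group was divided by that of its vehicle controls.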

[1] = endpoint: mean survival time, dose: 50.0 mg/kg/injection, schedule: Q01DX009 (ip), vehicle: Klucel (hydroxypropylcellulose) (HPC)
[2] = endpoint: mean survival time, dose: 100.0 mg/kg/injection, schedule: Q01DX009 (ip), vehicle: Klucel (hydroxypropylcellulose) (HPC)
[3] = endpoint: mean survival time, dose: 100.0 mg/kg/injection, schedule: Q01DX001 (ip), vehicle: saline with Tween-80
[4] = endpoint: mean survival time, dose: 200.0 mg/kg/injection, schedule: Q01DX001 (ip), vehicle: saline with Tween-80
[5] = endpoint: mean survival time, dose: 100.0 mg/kg/injection, schedule: Q01DX001 (ip), vehicle: saline
[6] = endpoint: mean survival time, dose: 200.0 mg/kg/injection, schedule: Q01DX001 (ip), vehicle: saline
[7] = endpoint: mean survival time, dose: 400.0 mg/kg/injection, schedule: Q01DX001 (ip), vehicle: saline
[8] = endpoint: mean survival time, dose: 100.0 mg/kg/injection, schedule: Q04DX003 (ip), vehicle: saline with Tween-80
[9] = endpoint: mean survival time, dose: 200.0 mg/kg/injection, schedule: Q04DX003 (ip), vehicle: saline with Tween-80
[10] = endpoint: mean survival time, dose: 400.0 mg/kg/injection, schedule: Q04DX003 (ip), vehicle: saline with Tween-80
[11] = endpoint: mean survival time, dose: 100.0 mg/kg/injection, schedule: Q01DX009 (ip), vehicle: saline with Tween-80
[12] = endpoint: mean survival time, dose: 200.0 mg/kg/injection, schedule: Q01DX009 (ip), vehicle: saline with Tween-80
[13] = endpoint: mean survival time, dose: 400.0 mg/kg/injection, schedule: Q01DX009 (ip), vehicle: saline with Tween-80
[14] = endpoint: mean survival time, dose: 5.0 mg/kg/injection, schedule: Q01DX001 (ip), vehicle: saline
[15] = endpoint: mean survival time, dose: 10.0 mg/kg/injection, schedule: Q01DX001 (ip), vehicle: saline
[16] = endpoint: mean survival time, dose: 20.0 mg/kg/injection, schedule: Q01DX001 (ip), vehicle: saline
[17] = endpoint: mean survival time, dose: 25.0 mg/kg/injection, schedule: Q01DX009 (ip), vehicle: saline with Tween-80

Measured: T/C

CC12CCC3C4CCC(=O)C(O)=C4CCC3C1CCC2OC(=O)CCC1CCCC1 (centres undefined)
inactive: endpoint: mean survival time, dose: 100.0 mg/kg/injection, schedule: Q04DX003 (sc), vehicle: steriod suspending solution 101 % of control | endpoint: mean survival time, dose: 200.0 mg/kg/injection, schedule: Q04DX003 (sc), vehicle: steriod suspending solution 104 % of control | endpoint: mean survival time, dose: 400.0 mg/kg/injection, schedule: Q04DX003 (sc), vehicle: steriod suspending solution 104 % of control

CC1CCN(N=Nc2ccc(Br)cc2-c2nc(N)c3cc(Br)ccc3n2)CC1
inactive: endpoint: mean survival time, dose: 6.25 mg/kg/injection, schedule: Q01DX005 (ip), vehicle: other 92 % of control | endpoint: mean survival time, dose: 12.5 mg/kg/injection, schedule: Q01DX005 (ip), vehicle: other 103 % of control | endpoint: mean survival time, dose: 25.0 mg/kg/injection, schedule: Q01DX005 (ip), vehicle: other 95 % of control | endpoint: mean survival time, dose: 50.0 mg/kg/injection, schedule: Q01DX005 (ip), vehicle: other 92 % of control | endpoint: mean survival time, dose: 100.0 mg/kg/injection, schedule: Q01DX005 (ip), vehicle: other 92 % of control

CC12CCC(c3cn(C(=O)c4cccnc4)nc31)C2(C)C (centres undefined)
inactive: [1] 102 % of control | [2] 94 % of control

O=C(/C=C\c1ccc(Cl)cc1)c1ccccc1
inactive: [3] 100 % of control | [4] 96 % of control | endpoint: mean survival time, dose: 400.0 mg/kg/injection, schedule: Q01DX001 (ip), vehicle: saline with Tween-80 96 % of control

CC(=NCc1ccccc1)C(C)(O)c1ccccc1 (centres undefined)
inactive: [5] 107 % of control | [6] 101 % of control | [7] 96 % of control

COC(=O)c1cc([N+](=O)[O-])cc([N+](=O)[O-])c1Sc1ncnc2nc[nH]c12
inactive: endpoint: mean survival time, dose: 0.63 mg/kg/injection, schedule: Q01DX005 (ip), vehicle: other 100 % of control | endpoint: mean survival time, dose: 1.25 mg/kg/injection, schedule: Q01DX005 (ip), vehicle: other 100 % of control | endpoint: mean survival time, dose: 2.5 mg/kg/injection, schedule: Q01DX005 (ip), vehicle: other 107 % of control | endpoint: mean survival time, dose: 5.0 mg/kg/injection, schedule: Q01DX005 (ip), vehicle: other 112 % of control | endpoint: mean survival time, dose: 10.0 mg/kg/injection, schedule: Q01DX005 (ip), vehicle: other 112 % of control | endpoint: mean survival time, dose: 40.0 mg/kg/injection, schedule: Q01DX005 (ip), vehicle: other 95 % of control

CNC(=O)Oc1c(Cl)c(C(Cl)(Cl)Cl)nc2ccccc12
inactive: endpoint: mean survival time, dose: 25.0 mg/kg/injection, schedule: Q04DX003 (ip), vehicle: saline with Tween-80 96 % of control | endpoint: mean survival time, dose: 50.0 mg/kg/injection, schedule: Q04DX003 (ip), vehicle: saline with Tween-80 97 % of control | [8] 89 % of control

CN(C)CCCNc1c2ccccc2nc2cccc([N+](=O)[O-])c12
inactive: endpoint: mean survival time, dose: 0.2 mg/kg/injection, schedule: Q04DX002 (ip), vehicle: saline + alcohol 103 % of control | endpoint: mean survival time, dose: 0.4 mg/kg/injection, schedule: Q04DX002 (ip), vehicle: saline + alcohol 103 % of control | endpoint: mean survival time, dose: 0.8 mg/kg/injection, schedule: Q04DX002 (ip), vehicle: saline + alcohol 100 % of control

CC(=O)Nc1ccccc1C
inactive: [8] 97 % of control | [9] 97 % of control | [10] 99 % of control

O=Cc1cc2c(cc1Br)OCO2
inactive: [11] 98 % of control | [8] 98 % of control | [12] 97 % of control | [9] 101 % of control | [13] 92 % of control | [10] 98 % of control

O.O.[Cl][Pt+2][Cl].[NH-]CC[NH-]
inactive: endpoint: median survival time, dose: 3.12 mg/kg/injection, schedule: Q04DX003 (ip), vehicle: distilled water + Tween-80 101 % of control | endpoint: median survival time, dose: 6.25 mg/kg/injection, schedule: Q04DX003 (ip), vehicle: distilled water + Tween-80 102 % of control | endpoint: median survival time, dose: 12.5 mg/kg/injection, schedule: Q04DX003 (ip), vehicle: distilled water + Tween-80 111 % of control | endpoint: median survival time, dose: 25.0 mg/kg/injection, schedule: Q04DX003 (ip), vehicle: distilled water + Tween-80 108 % of control | endpoint: median survival time, dose: 50.0 mg/kg/injection, schedule: Q04DX003 (ip), vehicle: distilled water + Tween-80 105 % of control

CCOC(=O)CC(=O)c1ccccc1
inactive: [11] 96 % of control | [12] 102 % of control | [13] 89 % of control

Nc1nc(N)c(-c2ccc(Cl)cc2)c(COc2ccc(C3(CCl)OCCO3)cc2)n1
inactive: endpoint: mean survival time, dose: 25.0 mg/kg/injection, schedule: Q01DX001 (ip), vehicle: saline with Tween-80 94 % of control | endpoint: mean survival time, dose: 50.0 mg/kg/injection, schedule: Q01DX001 (ip), vehicle: saline with Tween-80 102 % of control | [3] 100 % of control

[Br][Pt+2][Br].[NH-]CC(=O)O.[NH-]CC(=O)O
inactive: endpoint: mean survival time, dose: 25.0 mg/kg/injection, schedule: Q01DX009 (ip), vehicle: Klucel (hydroxypropylcellulose) (HPC) 101 % of control | [1] 90 % of control | endpoint: mean survival time, dose: 50.0 mg/kg/injection, schedule: Q04DX003 (ip), vehicle: Klucel (hydroxypropylcellulose) (HPC) 96 % of control | [2] 86 % of control | endpoint: mean survival time, dose: 100.0 mg/kg/injection, schedule: Q04DX003 (ip), vehicle: Klucel (hydroxypropylcellulose) (HPC) 102 % of control | endpoint: mean survival time, dose: 200.0 mg/kg/injection, schedule: Q04DX003 (ip), vehicle: Klucel (hydroxypropylcellulose) (HPC) 95 % of control

c1ccc2c(c1)nnn1c3cnccc3nc21
inactive: endpoint: mean survival time, dose: 1.56 mg/kg/injection, schedule: Q01DX009 (ip), vehicle: saline with Tween-80 101 % of control and 105 % of control | endpoint: mean survival time, dose: 3.12 mg/kg/injection, schedule: Q01DX009 (ip), vehicle: saline with Tween-80 94 % of control and 100 % of control | [14] 98 % of control | endpoint: mean survival time, dose: 6.25 mg/kg/injection, schedule: Q01DX009 (ip), vehicle: saline with Tween-80 97 % of control and 103 % of control | [15] 101 % of control | endpoint: mean survival time, dose: 12.5 mg/kg/injection, schedule: Q01DX009 (ip), vehicle: saline with Tween-80 101 % of control | [16] 98 % of control | [17] 103 % of control

O=c1c(O)c(-c2ccc(O)c(O)c2)oc2cc(O)cc(O)c12
inactive: [5] 100 % of control | [6] 100 % of control | [12] 90 % of control | [7] 100 % of control | [13] 96 % of control | endpoint: mean survival time, dose: 800.0 mg/kg/injection, schedule: Q01DX009 (ip), vehicle: saline with Tween-80 87 % of control

S=C(Nc1ccc(Cl)c(Cl)c1)SCc1ccc2c(c1)OCO2
inactive: endpoint: mean survival time, dose: 18.7 mg/kg/injection, schedule: Q01DX009 (ip), vehicle: suspension in saline 107 % of control | endpoint: mean survival time, dose: 37.5 mg/kg/injection, schedule: Q01DX009 (ip), vehicle: suspension in saline 108 % of control | endpoint: mean survival time, dose: 75.0 mg/kg/injection, schedule: Q01DX009 (ip), vehicle: suspension in saline 107 % of control | endpoint: mean survival time, dose: 150.0 mg/kg/injection, schedule: Q01DX009 (ip), vehicle: suspension in saline 111 % of control

CCCCCCCCCN=C(N)CSSCC(N)=NCCCCCCCCC
inactive: endpoint: mean survival time, dose: 12.5 mg/kg/injection, schedule: Q01DX001 (ip), vehicle: Klucel (hydroxypropylcellulose) (HPC) 94 % of control | endpoint: mean survival time, dose: 25.0 mg/kg/injection, schedule: Q01DX001 (ip), vehicle: Klucel (hydroxypropylcellulose) (HPC) 101 % of control

Nc1ncnc2c1ccn2C1OC2COP(=O)(O)OC2C1O (centres undefined)
inactive: [14] 98 % of control | [15] 102 % of control | [16] 114 % of control | endpoint: mean survival time, dose: 40.0 mg/kg/injection, schedule: Q01DX001 (ip), vehicle: saline 117 % of control

CC(=O)Oc1cc(-c2ccccc2)c(OC(C)=O)c(N=[N+]=[N-])c1C
inactive: [3] 101 % of control | [4] 108 % of control

CC(O)C(NC(=O)c1cnc(=O)[nH]c1N)C(=O)O (centres undefined)
inactive: [17] 105 % of control | endpoint: mean survival time, dose: 50.0 mg/kg/injection, schedule: Q01DX009 (ip), vehicle: saline with Tween-80 102 % of control | [11] 102 % of control

CCCCN=Cc1ccccc1O.CCCCN=Cc1ccccc1O.[Cr]
inactive: [3] 93 % of control
